The values below are quoted from earlier work in patent US6457474B1, “Method of treating chest pain” (priority 1997, dated 2002).

The conditions of data set [1]: after the tablet has dissolved under the tongue.

With `O=[N+]([O-])OCC(CO[N+](=O)[O-])O[N+](=O)[O-]` [nitroglycerin], the systemic bioavailability entry (after oral administration) is recorded as “rather low”. Also, the plasma levels result (high oral doses) is listed as “erratic”. Further, the “time for the angina attack to go away” value in data set [1] is reported as “approximately five”.
